Laboratory results: article PMC9171722, “An Enzyme with High Catalytic Proficiency Utilizes Distal Site Substrate Binding Energy to Stabilize the Closed State but at the Expense of Substrate Inhibition” (ACS Catalysis, 2022)

Experiments:
[1] = target: T1, β-phosphoglucomutase (βPGM WT) (Lactococcus lactis, UniProt P71447); parameters: gene pgmB
[2] = target: T2, β-phosphoglucomutase (βPGM R49A) (Lactococcus lactis, UniProt P71447, R49A); assay: enzyme kinetics (kcat/Km), G6PDH coupled assay; […] NMR time course; assay type: biochemical
T2 construct: gene pgmB; full length

[3] = target: T1, β-phosphoglucomutase (βPGM WT); assay: as above; assay type: biochemical; parameters: gene pgmB; full length
[4] = target: T3, β-phosphoglucomutase (βPGM R49K) (Lactococcus lactis, UniProt P71447, R49K); assay: as above; assay type: biochemical
T3 construct: gene pgmB; full length

SMILES	crystal structure (1.8 Å), open conformation [1]	enzyme kinetics (kcat/Km), G6PDH coupled assay; 31P NMR time course [2] [s^–1·μM^–1]	enzyme kinetics (kcat/Km), G6PDH coupled assay; 31P NMR time course [3] [s^–1·μM^–1]	enzyme kinetics (kcat/Km), G6PDH coupled assay; 31P NMR time course [4] [s^–1·μM^–1]
O=P(O)(O)O [Pi, phosphate]	a phosphate anion coordinated in the distal site by the guanidinium group of R49	–	–	–
O=P(O)(O)O[C@@H]1O[C@H](CO)[C@@H](O)[C@H](O)[C@H]1O [βG1P, β-glucose 1-phosphate]	–	0.02	0.29	0.05
